Source: PubChem BioAssay (NCI)
Several values for one entry are separate records, joined by “and”; a condition that tells them apart may be missing. Identical values can stand only once.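 Briefly, cells in 96-well plates were exposed to five compound concentrations for 48 h, and endpoints were estimated by linear interpolation. GI50: concentration for 50% inhibition of growth. The concentration for full growth arrest is given as TGI.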

What was measured:
Assay in all cases: NCI anticancer screen, dose series, 48 h
[1] = system: M19-MEL melanoma
[2] = system: HT29 colon
[3] = system: SF-268 CNS
[4] = system: OVCAR-8 ovarian
[5] = system: SNB-19 CNS
[6] = system: HL-60(TB) leukemia
[7] = system: DMS 114 small cell lung
[8] = system: OVCAR-4 ovarian
[9] = system: EKVX NSCLC
[10] = system: BT-549 breast

| SMILES | TGI [1] | TGI [2] | TGI [3] | TGI [4] | TGI [5] | TGI [6] | TGI [7] | TGI [8] | TGI [9] | GI50 [1] | GI50 [2] | GI50 [3] | GI50 [4] | GI50 [9] | GI50 [5] | TGI [10] | GI50 [6] | GI50 [7] | GI50 [8] | GI50 [10] |
| --- | --- | --- | --- | --- | --- | --- | --- | --- | --- | --- | --- | --- | --- | --- | --- | --- | --- | --- | --- | --- |
| CCOC(=O)c1cc2c(cn1)[nH]c1cccc(N)c12 | > 100 µM | > 100 µM | > 100 µM | > 100 µM | > 100 µM | 28.6 µM | > 100 µM | > 100 µM | – | – | – | – | – | – | – | – | – | – | – | – |
| O=c1cc(-c2ccccc2)nc(/C=C(\O)c2ccncc2)n1-c1ccccc1 | > 100 µM | > 100 µM | > 100 µM | > 100 µM | > 100 µM | > 100 µM | > 100 µM | > 100 µM | > 100 µM | – | – | – | – | – | – | – | – | – | – | – |
| COC(=O)[C@@]1(O)CC(C)C=C1C=O (stereo partly drawn) | > 100 µM | > 100 µM | > 100 µM | > 100 µM | > 100 µM | 51.6 µM | 89.7 µM | > 100 µM | > 100 µM | – | – | – | – | – | – | – | – | – | – | – |
| CN(C(=O)C12C3(C(=O)C(C)(C)C)C4C5(C#N)C3C1(C(=O)C(C)(C)C)C5C42C(=O)C(C)(C)C)C(C)(C)C (stereo not drawn) | > 50 µM | > 50 µM | > 50 µM | > 50 µM | > 50 µM | > 50 µM | > 50 µM | > 50 µM | > 50 µM | – | – | – | – | – | – | – | – | – | – | – |
| CCCCCCCCC(O)C#CC(N)=O (stereo not drawn) | 24.4 µM | 24.5 µM | – | 21.4 µM | 26.3 µM | 40.3 µM | 17.9 µM | 12 µM | 23.6 µM | – | – | – | – | – | – | – | – | – | – | – |
| NC(=S)N/N=C/c1ccc(O)cn1 | – | > 929 µM | – | 72.3 µM and 161 µM and 393 µM | 1020 µM and > 1360 µM | 44.7 µM and 21 µM and 21.7 µM | – | – | 210 µM | 15.4 µM and 9.44 µM | 37.9 µM | 5.55 µM and 3.43 µM | 4.71 µM | 82.5 µM | 29.2 µM and 8.2 µM | > 670 µM | 13.7 µM | 3.78 µM and 1.04 µM and 2.04 µM | – | – |
| Cc1ccc(-c2cc(=O)c3cc(C)c(C)c(C(=O)O)c3o2)cc1 | > 100 µM | > 100 µM | > 100 µM | > 100 µM | > 100 µM | – | > 100 µM | > 100 µM | > 100 µM | – | – | – | – | – | – | – | – | – | – | – |
| C/C(CC(=O)Nc1ccc(Cl)cc1)=N\NC(=O)C[n+]1ccccc1 | – | > 100 µM | > 100 µM | > 100 µM | – | > 100 µM | > 100 µM | – | > 100 µM | – | – | – | – | – | – | – | – | – | – | – |
| CC(C)(O)[C@@H]1CC[C@@]2(C)CCC[C@H](O)[C@H]2C1 | > 100 µM | > 100 µM | > 100 µM | > 100 µM | > 100 µM | > 100 µM | > 100 µM | > 100 µM | – | – | – | – | – | – | – | – | – | – | – | – |
| O=C1C2CC=CCC2C(=O)C12CCc1ccccc12 (stereo not drawn) | > 100 µM | > 100 µM | > 100 µM | > 100 µM | – | > 100 µM | – | > 100 µM | > 100 µM | – | – | – | – | – | – | – | – | – | – | – |
| CC(=O)OC(C)(C)/C=C/C(=O)[C@](C)(O)[C@H]1[C@H](O)C[C@@]2(C)[C@@H]3CC=C4[C@@H](C[C@H](O)C(=O)C4(C)C)[C@]3(CO)C(=O)C[C@]12C | 29.9 µM | – | 0.971 µM and 1.29 µM | 23.8 µM | 0.58 µM and 0.559 µM | 0.922 µM and 1.33 µM | 15.3 µM | 0.835 µM | 0.903 µM and 7.31 µM | 0.298 µM | 0.276 µM | 0.362 µM | – | 0.432 µM | 0.213 µM | – | 0.3 µM | 0.248 µM | 0.295 µM | – |
| O=C1[C@H]2ON(c3ccccc3)C(c3ccccc3F)[C@H]2C(=O)N1c1ccc(Cc2ccc(N3C(=O)[C@@H]4ON(c5ccccc5)C(c5ccccc5F)[C@@H]4C3=O)cc2)cc1 (stereo partly drawn) | > 100 µM | > 100 µM | > 100 µM | – | – | > 100 µM | > 100 µM | > 100 µM | – | – | – | – | – | – | – | – | – | – | – | – |
| Cc1ccc(C(=O)N2c3ccccc3N(C)n3cccc3C2CC(=O)O)cc1 (stereo not drawn) | > 100 µM | > 100 µM | > 100 µM | > 100 µM | > 100 µM | > 100 µM | > 100 µM | > 100 µM | > 100 µM | – | – | – | – | – | – | – | – | – | – | – |
| COc1ccc(-c2cn(-c3cccc(C(=O)/C=C/c4ccc(O)c(OC)c4)c3)c(=O)[nH]2)cc1 | – | > 22.7 µM | 14.7 µM | > 49.6 µM | 43.9 µM | 16 µM | – | > 24.4 µM | > 100 µM | – | 2.99 µM | 3.32 µM | 3.58 µM | 8.4 µM | 4.59 µM | 22.8 µM | 2.5 µM | – | 4.03 µM | 3.32 µM |
| N#Cc1ccc(C2C3=C(CCCC3=O)OC3=C2C(=O)c2ccccc2C3=O)cc1 (stereo not drawn) | – | 8.04 µM | 5.04 µM | 4.79 µM | 16 µM | 1.27 µM | – | 1.07 µM | 3.86 µM | – | 2.91 µM | 1.97 µM | 0.722 µM | 1.28 µM | 4.35 µM | 2.92 µM | 0.259 µM | – | 0.265 µM | 1.56 µM |
| COc1ccc2nc(NCN3C(=O)c4ccccc4C3=O)sc2c1 | – | > 100 µM | > 100 µM | > 100 µM | > 100 µM | > 100 µM | – | > 100 µM | > 100 µM | – | – | – | – | – | – | > 100 µM | – | – | – | – |
| Oc1ccc2ccccc2c1C1NN=C(c2ccccc2)S1 (stereo not drawn) | – | 40 µM | 29.1 µM | > 100 µM | > 100 µM | 4.13 µM | – | > 71.3 µM | > 94.7 µM | – | 0.724 µM | 0.418 µM | 0.439 µM | 0.633 µM | 0.683 µM | 28.9 µM | 0.353 µM | – | 0.515 µM | 0.858 µM |
| c1cncc(-c2nc3ccccc3s2)c1 | – | > 100 µM | > 100 µM | > 100 µM | > 100 µM | > 100 µM | – | > 100 µM | > 100 µM | – | > 100 µM | > 100 µM | > 100 µM | 41.2 µM | > 100 µM | > 100 µM | > 100 µM | – | > 100 µM | 74 µM |
| CCOc1ccccc1N1C(=O)C(=O)C(c2nc3ccccc3o2)/C(=N\N)C1=O (stereo not drawn) | > 100 µM | > 100 µM | > 100 µM | > 100 µM | > 100 µM | > 100 µM | > 100 µM | > 100 µM | > 100 µM | – | – | – | – | – | – | – | – | – | – | – |
| CN[C@@H]1C[C@H]2O[C@@](C)([C@@H]1OC)n1c3ccccc3c3c4c(c5c6ccccc6n2c5c31)C(=O)N[C@H]4O | – | 1.38 µM | 2.31 µM | > 5.44 µM | 0.722 µM | 0.52 µM | – | > 10 µM | > 10 µM | – | 0.0827 µM | 0.024 µM | 0.0885 µM | 0.059 µM | 0.0958 µM | 0.617 µM | – | – | 0.125 µM | 0.0683 µM |
